This note sets out measurements from US20230348424A1, “HETEROCYCLIC COMPOUNDS AND METHODS OF USE” (Schrödinger, Inc., priority 2022, published 2023).

The structures appear in SMILES notation.

The target of the experiment is SOS1:KRAS (G12C) interaction (Homo sapiens (Human), UniProt Q07889). In words: SOS1 KRas(G12C) FRET Assay. The class given is binding. The note with it: 0.5 nM His10-SOS1 (res. 564-1049), 2.5 nM GST-KRAS G12C (res. 1-169), 2 hrs at RT. The protocol:
Inhibition of the SOS 1:KRAS interaction was measured using purified GST-tagged KRAS (res. 1-169, G12C, purified based on Hillig, et al., Proc Natl Acad Sci USA (2019); 116(7):2551-2560) and recombinant His10-SOS1 (res. 564-1049; purified based on Hillig, et al.). The final assay was performed at 20 uL with 0.5 nM SOS1 protein and 2.5 nM KRAS protein in a buffer of PBS, 0.1% BSA, 5 mM MgCh, 0.0025% Igepal, 100 mM KF, 5 mM DTT in a white 384 square well OptiPlate (PerkinElmer, Cat. 6007290). A 2x KRAS working solution was prepared in an assay buffer containing 5 nM GST-KRAS G12C and 2 nM anti-GST-Eu(K) (Cisbio, Cat. 61GSTKLA) and pre-incubated for 15 minutes at 25° C. […] The final DMSO concentration is 0.5%. Plates were incubated at RT for 2 hrs before the FRET signal was measured using Envision at emission 665 nm and 615 nm. FRET signal was converted to percentage of protein-protein interaction using the following equation:
• C: signal with compound treatment • P: signal for positive control (DMSO) • N: signal for negative control (no SOS1 added)
IC50 and Hill coefficients were obtained using Graph Pad Prism (Graph Pad software, Inc, USA) with non-linear regression analysis.

Chain of SOS1:KRAS (G12C) interaction (Q07889 564-1049, stated change not applied): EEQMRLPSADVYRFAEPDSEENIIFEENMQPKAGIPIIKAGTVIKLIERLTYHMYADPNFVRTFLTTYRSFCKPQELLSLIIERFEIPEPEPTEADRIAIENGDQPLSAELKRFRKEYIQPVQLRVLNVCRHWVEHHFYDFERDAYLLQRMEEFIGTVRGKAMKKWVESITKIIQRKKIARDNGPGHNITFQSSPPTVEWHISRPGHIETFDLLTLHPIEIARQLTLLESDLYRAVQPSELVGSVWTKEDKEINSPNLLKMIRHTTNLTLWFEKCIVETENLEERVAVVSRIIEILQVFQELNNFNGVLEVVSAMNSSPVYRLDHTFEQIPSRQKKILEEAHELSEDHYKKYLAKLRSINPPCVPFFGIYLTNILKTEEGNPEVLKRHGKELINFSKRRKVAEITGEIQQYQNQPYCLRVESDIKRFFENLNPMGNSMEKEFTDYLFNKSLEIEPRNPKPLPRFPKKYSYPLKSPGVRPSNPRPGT

What is called IC50 is the concentration needed to halve the response being measured. The compound `Cc1c([C@@H](C)NC(=O)c2cn(C3CCOCC3)c(=O)cc2N[C@H]2CC[C@@]23CCCN(C)C3)cccc1C(F)(F)F` (single isomer, unassigned) [Example 296] returned an IC50 of 0.252 µM.

Turning to `Cc1c([C@@H](C)NC(=O)c2cn(C3CCOCC3)c(=O)cc2N[C@@H]2CC[C@]23CCCN(C)C3)cccc1C(F)(F)F` (single isomer, unassigned) [Example 297], the IC50 was 0.0334 µM. On to `Cc1c([C@@H](C)NC(=O)c2cn(C3CCOCC3)c(=O)cc2N[C@H]2CC[C@]23CCCN(C)C3)cccc1C(F)(F)F` (single isomer, unassigned) [Example 298], for which the 50% inhibitory concentration (IC50) is 0.0881 µM. For `Cc1c([C@@H](C)NC(=O)c2cn(C3CCOCC3)c(=O)cc2N[C@@H]2CC[C@@]23CCCN(C)C3)cccc1C(F)(F)F` (single isomer, unassigned) [Example 299] the value was 0.0513 µM; for `C[C@@H](NC(=O)c1cn(C2(C(F)F)CC2)c(=O)cc1N[C@@H]1CCN2CCC[C@H]2C1)c1cccc(C(F)F)c1F` (single isomer, unassigned) [Example 303], 0.0182 µM.

`C[C@@H](NC(=O)c1cn(C2(C(F)F)CC2)c(=O)cc1N[C@H]1CCN2CCC[C@@H]2C1)c1cccc(C(F)F)c1F` (single isomer, unassigned) [Example 304] returned an IC50 of 0.0257 µM. For `C[C@@H](NC(=O)c1cn(C2(C(F)F)CC2)c(=O)cc1N[C@H]1CCN2CCC[C@H]2C1)c1cccc(C(F)F)c1F` (single isomer, unassigned) [Example 305] the value was 0.0233 µM; for `C[C@@H](NC(=O)c1cn(C2(C(F)F)CC2)c(=O)cc1N[C@@H]1CCN2CCC[C@@H]2C1)c1cccc(C(F)F)c1F` (single isomer, unassigned) [Example 306], 0.0417 µM. As for `C[C@@H](NC(=O)c1cn([C@@H]2CCOC(C)(C)C2)c(=O)cc1NC1CCN(C)CC1)c1cccc(C(F)F)c1F` (single isomer, unassigned) [Example 307], the figure is 0.0049 µM; as for `C[C@@H](NC(=O)c1cn([C@H]2CCOC(C)(C)C2)c(=O)cc1NC1CCN(C)CC1)c1cccc(C(F)F)c1F` (single isomer, unassigned) [Example 308], 0.0179 µM; as for `C[C@@H](NC(=O)c1cn(C2(C(F)F)CC2)c(=O)cc1N[C@H]1CCN(C)C2(CC2)C1)c1cccc(C(F)F)c1F` (single isomer, unassigned) [Example 311], 0.0097 µM. `C[C@@H](NC(=O)c1cn(C2(C(F)F)CC2)c(=O)cc1N[C@@H]1CCN(C)C2(CC2)C1)c1cccc(C(F)F)c1F` (single isomer, unassigned) [Example 312] showed an IC50 of 0.0356 µM. As for `Cc1c([C@@H](C)NC(=O)c2cn(C3CCOCC3)c(=O)cc2NC2CCN(C)CC2)cccc1C(F)(F)F` [Example 1, (R)-N-(I-(2-methyl-3-(trifluoromethyl)phenyl)ethyl)-4-((I-methylpiperidin-4-yl)amino)-6-oxo-1-(tetrahydro-2H-pyran-4-yl)-1,6-dihydropyridine-3-carboxamide], the figure is 0.0274 µM; as for `Cc1c([C@@H](C)NC(=O)c2cn(C3CCOCC3)c(=O)cc2NCC23CCCN2CCC3)cccc1C(F)(F)F` [Example 11, (R)-N-(1-(2-methyl-3-(trifluoromethyl)phenyl)ethyl)-6-oxo-4-(((tetrahydro-1H-pyrrolizin-7a(5H)-yl)methyl)amino)-1-(tetrahydro-2H-pyran-4-yl)-1,6-dihydropyridine-3-carboxamide], 0.0376 µM; as for `Cc1c([C@@H](C)NC(=O)c2cn(C3CCOCC3)c(=O)cc2NC2CCN(CC(F)(F)F)CC2)cccc1C(F)(F)F` [Example 15, (R)-N-(1-(2-methyl-3-(trifluoromethyl)phenyl)ethyl)-6-oxo-1-(tetrahydro-2H-pyran-4-yl)-4-((1-(2,2,2-trifluoroethyl)piperidin-4-yl)amino)-1,6-dihydropyridine-3-carboxamide], 0.847 µM.
